Results taken from patent publication US20060246117A1, “Animal husbandry method for administering a vitamin E derivative and formulation” (ADISSEO FRANCE S.A.S., priority 2003, published 2006).

Columns and labels:
[1] = oral route, animals; cited from earlier work
CaCo-2 = experiment: Absorption of Tol and Tac by CaCo-2 cells in M20 medium, one hour at 37° C., non-ethoxylated versus ethoxylated emulsifiers (Example 3); type: in vitro ADME
Experimental: Absorption assays are carried out, using the same cell line as that described above, by incubating the cells for 3 hours in a physiological medium which is similar to the intestinal medium and which contains cholesterol ester hydrolase (CEH), the pancreatic enzyme which hydrolyzes the Tac into vitamin E in the animal, and sodium taurocholate, which represents the bile salts. This medium comes in the form of an oil-in-water emulsion, i.e. in the form of micelles, and is commercially identified under the reference M20. The Tac, and, where appropriate, the emulsifier being tested, are placed in this medium. The concentration, in vitamin E equivalent, which is introduced into each well in the form of Tac is 156 μM.
The general experimental conditions of the protocol described in Example 2, 2.1) are identical apart from the fact that the area of the wells and the concentration of Tac introduced into the M20 medium differ. The area of the wells is 6.5 cm^2 and the concentration of Tac is 23.7 μM/cm^2.
Four experiments are carried out, with each being repeated three times, using a protocol which comprises one hour of incubation at 37° C., as follows: • 1) M20 on its own, at the rate of 2 mM; the Tac is therefore on its own without emulsifier; • 2) M20+SML (sorbitan monolaurate) emulsifier • 3) M20+SMP (sorbitan monopalmitate) emulsifier • 4) M20+ESML (ethoxylated sorbitan monolaurate)
In the case of each of the assays 2), 3) and 4), the ratio by weight of the added emulsifier to the Tac (in vitamin E equivalent) is 1:6.9.
Four experiments are carried out, with each being repeated three times, using a protocol which comprises one hour of incubation at 37° C., as follows: • 1) M20 on its own; the Tac is therefore on its own without emulsifier; • 2) M20+SML (sorbitan monolaurate) emulsifier • 3) M20+SMP (sorbitan monopalmitate) emulsifier • 4) M20+MOSE (ethoxylated sorbitan monooleate)

[2] = Release of Tac from its silica support (Example 4); type: physicochemical; conditions: 2.5 hours, 38° C., Tac on silica
Experimental: The present example tests the effect of an emulsifier according to the invention, i.e. SMO (sorbitan monooleate), on the release of Tac which is attached to silica. To this end, use is made of Tac on a silica support, in a ratio by weight of 1:1, for the assay without emulsifier, and of Tac+emulsifier (SMO) on silica in a ratio by weight of 50:5:45.
10 g of Tac (where appropriate +SMO) on the above silica (that is a final concentration of Tac of 10 mM) are incubated for 2.5 hours, while stirring and at 38° C., under different pH conditions in the following solutions:
either 35 mM phosphate, pH 6.5, 0.15 mM NaCl
or 35 mM HCl/glycine, pH 2.5

[3] = test system: cholesterol ester hydrolase (pancreatin); experiment: Combined release of Tac from silica support and hydrolysis of the released Tac to Tol (Example 6); type: in vitro ADME
Experimental: The present example tests the effect of an emulsifier according to the invention, i.e. SMO (sorbitan monooleate). For this purpose, use is made of Tac on a silica support, in a ratio by weight of 1:1, for the assay without emulsifier, and of Tac+emulsifier (SMO) on silica, in a ratio by weight of 50:5:45.
8 mg of Tac (where appropriate +SMO) on the above silica (that is a final concentration of Tac of 16.9 μM) are incubated for 3 hours, while stirring and at 37° C., in the following solutions:
35 mM phosphate, pH 6.5, […] NaCl, pancreatin (2 mg) and bile salts (20 mM).
Before incubating, and after 1 hour and 3 hours, respectively, of incubation under the aforementioned conditions, the concentration of vitamin E in the solution is measured in comparison with the initial quantity of Tac.

[4] = Digestibility of vitamin E from faecal excretion in caecectomized cocks (Example 7); type: in vivo; conditions: treatment 1: Tac 40 mg, no emulsifier
Experimental: Two series of tests were carried out on caecectomized cocks. The first series comprised 32 cocks while the second comprised 51 cocks. They were fed, by “wet gavage”, with a feed which incorporated Tac (vitamin E acetate) or Tac combined, in different proportions, with one or two alimentary emulsifiers according to the invention. The Tac or the combined Tac was formulated in gelatin capsules, which were obtained by using a pipette to deposit a predetermined quantity of Tac or combined Tac in a capsule half shell and then closing the capsule with the other half shell. 48 hours after the ingestion of feed from a bowl, the faeces are collected and the excretion of the vitamin in this material is determined. To this end, the vitamin E is extracted with a vitamin E solvent, for example hexane, and the quantity extracted is then determined by HPLC chromatography. The proportion of vitamin E which has been digested is deduced from the proportion which has been excreted.

[5] = molecular target: T1, cholesterol ester hydrolase (Homo sapiens, UniProt P19835); experiment: Tac hydrolysis in M40 micelle above CaCo-2 cells, 2 hours (Example 8.2); type: in vitro ADME; conditions: Tac 67 nmol/cm^2; Tac/emulsifier ratio 100/1; 2 hours at 37° C.
T1 sequence (P19835 21-753): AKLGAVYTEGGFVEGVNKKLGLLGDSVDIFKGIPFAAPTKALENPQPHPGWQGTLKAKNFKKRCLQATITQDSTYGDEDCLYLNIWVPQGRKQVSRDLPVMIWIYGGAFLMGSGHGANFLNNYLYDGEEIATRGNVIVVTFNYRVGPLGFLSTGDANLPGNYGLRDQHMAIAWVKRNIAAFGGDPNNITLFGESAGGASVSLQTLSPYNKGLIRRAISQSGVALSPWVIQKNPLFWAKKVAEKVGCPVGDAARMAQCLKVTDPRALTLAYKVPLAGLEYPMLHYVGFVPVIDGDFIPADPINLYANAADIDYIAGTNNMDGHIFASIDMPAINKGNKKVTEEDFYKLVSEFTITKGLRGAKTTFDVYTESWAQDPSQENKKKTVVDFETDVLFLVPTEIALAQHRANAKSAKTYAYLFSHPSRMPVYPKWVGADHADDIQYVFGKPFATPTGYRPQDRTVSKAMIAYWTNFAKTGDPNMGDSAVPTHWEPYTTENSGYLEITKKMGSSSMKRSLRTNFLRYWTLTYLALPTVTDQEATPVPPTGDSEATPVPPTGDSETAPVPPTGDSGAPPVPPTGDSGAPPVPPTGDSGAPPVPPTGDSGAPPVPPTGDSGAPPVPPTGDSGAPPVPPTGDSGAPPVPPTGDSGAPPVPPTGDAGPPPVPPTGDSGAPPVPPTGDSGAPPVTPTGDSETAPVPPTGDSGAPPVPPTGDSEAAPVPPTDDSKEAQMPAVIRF
Experimental: The conditions under which the tests are carried out are as follows: • Cell model: CaCo-2 cells • Area of the wells: 4.2 cm^2 • Quantity of Tac: 67 nmol/cm^2 • Solution employed: M40 micelle in accordance with Mathias et al.
Treatments: • A: Without emulsifier • B: With emulsifier (SMP+SMO mixture; ratio 1/1), Tac/emulsifier ratio 100/1
Period of incubation: 2 hours at 37° C.
Analyses: Analysis of Tac in the medium above the cells for the purpose of calculating the degree of hydrolysis.

[6] = Plasma vitamin E level of piglets after intraduodenal infusion (Example 9); type: in vivo; conditions: 800 IU single bolus intraduodenally; pooled samples 4-24 h postprandially
From the text: In order to exclude gastric influences or impacts of the carrier, the emulsifier of the invention was intraduodenally infused in liquid form (oil).
Three weaning piglets (initial BW 12 kg) were surgically fitted with a silicon catheter in the jugular vein as well as with a silicon cannula in the proximal duodenum according to the procedure described by Thaela et al. (1995).
A standard weaner diet without vitamin E supplementation was fed to the piglets. The animals were fed a daily feed allowance corresponding to 2.0×W^0.75, distributed twice in equal meals (08.00 h and 16.00). The animals were adapted for 7d to the basal diet. […] 2 treatments×3 piglets×2 repetitions (cross-over)
R1: 800 IU Vitamin E standard oil, infused as a single bolus intraduodenally
Blood samples were taken 4, 8, 12, 16, 20 and 24 h postprandially, plasma was obtained and samples were pooled. After the experiment, the animals were newly adapted to the basal diet for 7d before the 2nd repetition was done accordingly. The vitamin E content in the plasma was determined by HPLC according to the method by Castan et al. (2005). Data were analysed using the ANOVA procedure of Statview.

[7] = Plasma and liver vitamin E levels of broilers fed graded doses (Example 10); type: in vivo, Ross male broiler chicks; conditions: d35, diets fed d15 to d34
From the text: R3: Control+120 IU/kg standard Vit E
R4: Control+200 IU/kg standard Vit E
Three hundred Ross male broiler chicks were divided into 6 groups and housed in 6 pens. From d0 to d14, all animals were fed the same, vitamin E free, basal diet.
The animals received the pelleted experimental diets (R1-R6) ad libitum from d15 to d34. On d35, 15 broilers per treatment, which were closest to the mean body weight, were selected. Plasma samples were collected by intracardiac puncture. Birds were then slaughtered by pentobarbital injection. Livers were dissected, deep frozen in liquid nitrogen and immediately ground. The vitamin E levels in plasma or livers were determined by HPLC according to the method by Castan et al. (2005). Data were analysed using the ANOVA procedure of Statview.

[8] = Vitamin E levels in egg yolks of laying hens (Example 11); type: in vivo, ISA brown laying hens; conditions: supplementation level of 100 mg/kg feed
Experimental: Forty ISA brown laying hens, 23 weeks of age, were equally divided into 4 groups and individually housed in cages. The animals received the meal experimental diets (R1-R4) ad libitum for 21 days. The eggs layed on D20 to 21 were collected, weighed and stored at +4° C. The vitamin E levels in the egg yolk were determined by HPLC according to the method by […] et al. (2005). Data were analysed using the ANOVA procedure of Statview.

[9] = in vivo
From the text: (§1) R1: Basal diet+20 IU/kg standard Vit E (in the form of dl-α-tocopheryl acetate)
R2: Control+150 IU/kg standard Vit E
(§2) Thirty crossbred weanling piglets (8.0 kg live weight) were divided into three groups (R1, R2, R3), kept individually and distributed according to a completely randomized block design. The piglets were fed ad libitum for 14 days on a corn-wheat based diet (Table 11). The diet was supplemented with either 20 IU/kg (R1) or 150 IU/kg (R2) standard DL-α-tocopheryl acetate. […] On day 15 of the experiment the animals were slaughtered and their liver dissected, immediately frozen under liquid nitrogen and ground to powder. Muscle samples (muscularis glutaeus maximus) of about 9 cm2 were obtained from the left hind leg and frozen immediately. The vitamin E content of the samples was determined by HPLC (Castan et al. 2005) and data were statistically analysed using one-way ANOVA.

[10] = Vitamin E levels in liver and muscle of piglets (Example 13); conditions: points at 20 IU/kg and 150 IU/kg
From the text: as §1
R2: Control+150 IU/kg standard Vit E
as §2

[11] = Example 3.2, emulsifier:Tac 1:6.9
[12] = Example 3.3, emulsifier:Tac 1:6.9

## Cc1c(C)c2c(c(C)c1O)CC[C@@](C)(CCC[C@H](C)CCC[C@H](C)CCCC(C)C)O2 [vitamin E, d-α-tocopherol]
[1]
  bioavailability: ≤ 50%

## CC(=O)Oc1c(C)c(C)c2c(c1C)CC[C@@](C)(CCC[C@H](C)CCC[C@H](C)CCCC(C)C)O2 [Tac, d,l-α-tocopheryl acetate]
CaCo-2; [11]
  Absorption, Tac: 1.68 nmol/cm^2
  Absorption, Tol: 1.77 nmol/cm^2
  Absorption, Vitamin E (Tol + Tac in vitamin E equivalent): 3.45 nmol/cm^2
CaCo-2; [12]
  Absorption, Tac: 2.31 nmol/cm^2
  Absorption, Tol: 1.29 nmol/cm^2
  Absorption, Vitamin E (Tol + Tac in vitamin E equivalent): 3.60 nmol/cm^2
[2]; 35 mM HCl/glycine, pH 2.5
  % of vitamin E released at pH 2.5: 46.5%
[2]; 35 mM phosphate, pH 6.5
  % of vitamin E released at pH 6.5: 59.6%
[3]; time 0 minutes (before incubating)
  concentration of vitamin E in the solution in comparison with the initial quantity of Tac: 1.21
[3]; time 60 minutes
  concentration of vitamin E in the solution in comparison with the initial quantity of Tac: 1.30
[3]; time 180 minutes
  concentration of vitamin E in the solution in comparison with the initial quantity of Tac: 5.25
[4]; first series, faeces at 48 hours
  Mean digestibility: 24.8%
[4]; second series
  Mean digestibility: 26.1%
[5]
  Tac hydrolysis: 9.7%
[6]
  overall plasma vitamin E level: 5.72 nmol/mL
[7]; liver
  slope of the curve of liver vitamin E level versus dietary dose: 0.1896
[7]; plasma
  slope of the curve of plasma vitamin E level versus dietary dose: 0.1211
[8]
  total vitamin E content of the yolk: 4.07 mg
[9]
  increase of vitamin E content in liver as compared to piglets fed 20 IU/kg DL-α-tocopheryl acetate: 51%
  increase of vitamin E content in muscle as compared to piglets fed 20 IU/kg DL-α-tocopheryl acetate: 35%
[1]
  bioavailability: ≤ 40%
[10]
  slope of the regression curve for vitamin E contents in livers: 1.89
  slope of the regression curve for vitamin E contents in muscle samples: 0.89
